# From ChEMBL document CHEMBL3124911, “Chikungunya virus: emerging targets and new opportunities for medicinal chemistry” (J Med Chem, 2014)
# Experiments:
# [1] = tested on: Chikungunya virus; experiment: Antiviral activity against Chikungunya virus by cell-based assay; format: functional
# [2] = tested on: Chikungunya virus; experiment: Antiviral activity against Chikungunya virus; format: functional
# [3] = tested on: Chikungunya virus; experiment: Antiviral activity against Chikungunya virus infected in African green monkey Vero cells assessed as inhibition of virus-induced cytopathic effect; format: functional, cell-based
# [4] = Selectivity index, ratio of CC50 for African green monkey Vero cells to EC50 for Chikungunya virus; format: toxicity, cell-based; details: read-out: Ratio CC50/EC50
# [5] = tested on: Chikungunya virus; experiment: Antiviral activity against Chikungunya virus infected in BHK21 cells assessed as inhibition of viral replication after 24 hrs; format: functional, cell-based; details: BHK-21, 24 h
# [6] = Inhibition of Chikungunya virus IMPDH
smiles,measurement,setting,value
CCOC(=O)c1c(CS(=O)(=O)c2ccccc2)n(C)c2cc(Br)c(O)c(CN(C)C)c12,IC50,[1],56.4 µM
C=C(C)[C@@]1(O)[C@@H]2OC3(c4ccccc4)O[C@H]1[C@@H](C)[C@]1(O3)C3=CC(=C(Cl)Cl)[C@H](OC(=O)c4ccccc4)[C@@]3(O)[C@H](OC(C)=O)[C@@]3(COC(C)=O)O[C@H]3[C@@H]21,EC50,[2],1.5 µM
CCOC(=O)c1c(C[S+]([O-])c2ccccc2)n(C)c2cc(Br)c(O)c(CN(C)C)c12 (stereo unspecified),IC50,[1],54.5 µM
CCOc1ccc(/C=N/NC(=O)C2CC2c2ccc(C(C)(C)C)cc2)cc1OCC (stereo unspecified),EC50,[3],5 µM
same,selectivity ratio,[4],14
CCOc1ccc(/C=N/NC(=O)/C=C/c2ccc(C(C)(C)C)cc2)cc1OCC,EC50,[3],3.2 µM
same,selectivity ratio,[4],32
CC1(C)CC[C@]2(C)CC[C@]3(C)C(=CC[C@@H]4[C@@]5(C)CCC(=O)C(C)(C)[C@@H]5CC[C@]43C)[C@@H]2C1,EC50,[1],86 µM
O=c1cnn([C@@H]2O[C@H](CO)[C@@H](O)[C@H]2O)c(=O)[nH]1 [6-AZAURIDINE],EC50,[2],0.2 µg/mL
CCN(CC)CCCC(C)Nc1ccnc2cc(Cl)ccc12 (stereo unspecified) [CHLOROQUINE],IC50,[2],1.1 µg/mL
COC(=O)C[C@](O)(CCC(C)(C)O)C(=O)O[C@@H]1C(OC)=C[C@]23CCCN2CCc2cc4c(cc2[C@H]13)OCO4 [HARRINGTONINE],EC50,[5],0.24 µM
C=C(C)[C@@H]1CC[C@]2(C)CC[C@]3(C)[C@H](CC[C@@H]4[C@@]5(C)CCC(=O)C(C)(C)[C@@H]5CC[C@]43C)[C@@H]12 [LUPENONE],EC50,[1],77 µM
COc1c(C)c2c(c(O)c1C/C=C(\C)CCC(=O)O)C(=O)OC2 [MYCOPHENOLIC ACID],IC50,[6],0.2 µM
C=C[C@H]1CN2CC[C@H]1C[C@H]2[C@H](O)c1ccnc2ccc(OC)cc12 [QUININE],IC50,[2],0.1 µg/mL
NC(=O)c1ncn([C@@H]2O[C@H](CO)[C@@H](O)[C@H]2O)n1 [RIBAVIRIN],EC50,[2],83.3 µg/mL
CCOC(=O)c1c(CSc2ccccc2)n(C)c2cc(Br)c(O)c(CN(C)C)c12 [UMIFENOVIR],IC50,[1],12.2 µM
